Results as given in patent publication US20130189352A1 (ZHEJIANG UNIVERSITY, priority 2011, published 2013).
≈ marks a conversion by molar mass, not a printed value. Read-outs that look alike come from different tables or passages of the source.

Legend:
[1] = tested on: doxorubicin-resistant human breast cancer MCF-7 (MCF-7/ADR); assay: MTT cytotoxicity test, MCF-7/ADR; format: cell-based; settings: NCI/ADR-RES, read-out: IC50 MCF-7/ADR
Protocol: (§1) The cells suspension solution was seeded in 96-well plates with 100 μL solution per well containing 5000-10000 cells. […] The drug-loaded liposomes and doxorubicin were separately solved in saline solutions. […] These different formulations were added 25 μl per well in increasing concentrations to the wells of the 96-well plate. The cells were allowed to grow for 24 hours before adding 31.5 μl MTT (5 mg/mL) per well. Finally, about 4 hours later, all of the culture medium was removed and the precipitates were dissolved in 200 μl dimethyl sulfoxide (DMSO). […] The above tests were repeated three times for each group and each concentration has four wells. […] The IC50 values were calculated by IC50.exe software.

[2] = tested on: doxorubicin-resistance human promyelocytic leukemia cell (HL60/ADR); assay: MTT cytotoxicity test, HL60/ADR; format: cell-based; settings: read-out: IC50 HL60/ADR
Protocol: as §1

[3] = tested on: human promyelocytic leukemia cells (HL60); assay: MTT cytotoxicity test, HL60; format: cell-based; settings: read-out: IC50 HL60
Protocol: as §1

[4] = cited from earlier work
[5] = tested on: human breast cancer cells (MCF-7); assay: MTT cytotoxicity test, MCF-7; format: cell-based; settings: read-out: IC50 MCF-7
Protocol: as §1

[6] = MTT, 24 hours drug exposure, concentrations based on the amount of doxorubicin

SMILES | IC50 [1, 6] | IC50 [2, 6] | IC50 ([3]; HL-60, MTT, 24 hours drug exposure, concentrations based on the amount of doxorubicin) | PKa [4] | IC50 ([5]; MCF7, MTT, 24 hours drug exposure, concentrations based on the amount of doxorubicin) | IC50 ([1]; 24 h) | IC50 ([2]; 24 h) | IC50 ([3]; HL-60, 24 h) | IC50 ([5]; MCF7, 24 h)
COc1cccc2c1C(=O)c1c(O)c3c(c(O)c1C2=O)C[C@@](O)(C(=O)CO)C[C@@H]3O[C@H]1C[C@H](N)[C@H](O)[C@H](C)O1 [Control 1, doxorubicin] | 15.7 µg/mL (≈ 28.9 µM) | 13.6 µg/mL (≈ 25 µM) | 0.4 µg/mL (≈ 0.736 µM) | 4.0 | 0.4 µg/mL (≈ 0.736 µM) |  |  |  | 
CCN(CC)CCCC(C)Nc1ccnc2cc(Cl)ccc12 (stereo not drawn) [Control 2, chloroquine] |  |  |  |  |  | 23.3 µg/mL (≈ 72.8 µM) | 11.2 µg/mL (≈ 35 µM) | 17.3 µg/mL (≈ 54.1 µM) | 18.1 µg/mL (≈ 56.6 µM)
